Laboratory results from patent publication US10293016B2, “Use of instant asparagus powder in food, medicine and health food” (Q[…] DEVELOPMENT CO., LTD, priority 2013, dated 2019).

Key:
Mouse [1] = assay: Elevated plus maze model (EPM) test; assay type: in vivo
Source text: The elevated plus maze has been widely used in anxiety experiments of the small rodent. This system is used to detect the situation of decreasing animals' inherent aversion to a high position and a open field, after using the anxiety drug. The rodent (e.g. rat, mouse), which have the exploratory behavior, will actively explore the open arms after placed in the elevated plus maze, but fear the high and open environment in the open arms. The antianxiety drug increases the open-arm exploratory activities, while the anxiety drug has the opposite effect.
The elevated plus maze has a pair of open arms and a pair of closed arms. The animal, after a period of time of adaptation, is rapidly placed in the central platform of the EPM in such a way that its head directly faces one of the open arms. A tracking camera is used to record following: (1) times of entering the open arm (open arm entry, OE) within 5 minutes, wherein it is considered as one time of entering an open arm when all the four paws of the rat have entered any open arm, and meanwhile this entry activity is finished when one paw completely withdraws from this arm; (2) duration of staying in an open arm (open arm time, OT) within 5 minutes, wherein the unit of the duration of staying in an open arm is “second”; (3) times of entering a closed arm (close arm entry, CE) within 5 minutes, wherein it is considered as one time of entering a closed arm when all the four paws of the rat have entered any closed arm; (4) duration of staying in a closed arm (close arm entry, CT) within 5 minutes, wherein the unit of duration of staying in a closed arm is “second”. The following is calculated from (1)-(4), respectively: […]
(1) the total number of the times of the open arm entry and the closed arm entry (OE+CE): representing the motion vitality of the rat;
(2) the ratio of the times of the open arm entry (OE %); the times of the open arm entry/(OE+CE)×100%;
(3) the ratio of the duration of staying in the open arms (OT %), i.e. the duration of staying in the open arms/(OT+CT)×100%. Each rat is tested for 5 minutes. OE % and OT % represent the indices of the antianxiety effect.

Mouse [2] = assay: Chronic emotional stress-response model (CSM) test, behaviors; assay type: in vivo, rat; conditions: CSM empty bottle stimulation, dosage 3 mg/Kg, n=10
[3] = tested on: Neurotransmitter in Hippocampus of Rat; assay: CSM test, level of neurotransmitter in hippocampus; assay type: in vivo; conditions: dosage 3 mg/Kg
Source text: (§1) The chronic emotional stress-response model takes as an emotional stress-response resource an uncertain stimulation of drinking by an empty bottle, so as to investigate the influence which the emotional stress of 14 days exerts on the behaviors, and neuroendocrine and immune functions of the rats.
After adaptation for one week, the rats were randomly grouped. Except the normal group, the model groups were fed in individual cages and subjected to the uncertain stimulation of drinking by an empty bottle to establish the anxiety stress models. The specific method is as follows: the training of timely feeding water lasts for 7 days, that is, water was being given to the animals for 10 minutes every day at 9:00-9:10 and 17:00-17:10, and at other times, the water bottles were taken away, without water given. After the period of timely feeding water was ended, the stress-response experiment started, wherein the uncertain stimulation of the empty bottle was given once or twice a day in the above two periods of time for two weeks. The normal group was not subjected to any treatment, and was fed with water and food freely. The behaviors observed included attacking (biting or attacking the empty bottle and the cage), exploratory (moving around and visiting the place where the water bottle was located), and grooming behaviors (combing fur and washing face). The specific method was: the 10 minutes of the empty bottle stimulation was equally divided into 10 periods of time, the above-mentioned three types of behaviors of each rat were recorded in each period of time, wherein it was marked as “1” if the behavior appears, otherwise it was marked as “0”. The total score obtained in the observation within 10 minutes was between 0 and 10. […] The average score of the first 3 days and the last 3 days of the 14 observation days was used for statistical analysis. […]
(§2) The following endocrine levels were detected in the test: (1) plasma cortisol concentration, (2) catecholamine level, (3) 5-hydroxytryptamine level.

[4] = tested on: Neurotransmitter in Serum of Rat; assay: CSM test, level of neurotransmitter in serum; assay type: in vivo; conditions: dosage 3 mg/Kg
Source text: as §1
After adaptation for one week, the rats were randomly grouped. Except the normal group, the model groups were fed in individual cages and subjected to the uncertain stimulation of drinking by an empty bottle to establish the anxiety stress models. The specific method is as follows: the training of timely feeding water lasts for 7 days, that is, water was being given to the animals for 10 minutes every day at 9:00-9:10 and 17:00-17:10, and at other times, the water bottles were taken away, without water given. After the period of timely feeding water was ended, the stress-response experiment started, wherein the uncertain stimulation of the empty bottle was given once or twice a day in the above two periods of time for two weeks. The normal group was not subjected to any treatment, and was fed with water and food freely. The behaviors observed included attacking (biting or attacking the empty bottle and the cage), exploratory (moving around and visiting the place where the water bottle was located), and grooming behaviors (combing fur and washing face). The specific method was: the 10 minutes of the empty bottle stimulation was equally divided into 10 periods of time, the above-mentioned three types of behaviors of each rat were recorded in each period of time, wherein it was marked as “1” if the behavior appears, otherwise it was marked as “0”. The total score obtained in the observation within 10 minutes was between 0 and 10. […] The average score of the first 3 days and the last 3 days of the 14 observation days was used for statistical analysis. The samples were gathered when the experiment was ended to detect the neuroendocrine and immune indices.
The normal control group was not subjected to any treatment; all the other groups were subjected to the stimulation.
as §2

Mouse [5] = assay: Analysis of times of locomotor activities; assay type: in vivo
Source text: The condition of the locomotor activity of an animal reflects the functional status of its central nervous system. The central stimulant drug can prominently increase the locomotor activity but decrease the exploratory behavior, and a certain dosage of antipsychotic drug can decrease the exploratory behavior without influencing the locomotor activity. A YLS-1A multi-functional mouse locomotor activity recorder is used to record the situation of locomotor activity of the mouse at different points of time after drug administration.

CN1C(=O)CN=C(c2ccccc2)c2cc(Cl)ccc21 [DZP, diazepam]
OE + CE (times) (Mouse [1]; EPM 5 minutes, dosage 3 mg/Kg, n=10, mean±SD, negative control 10.8 ± 3.9): 12.9 ± 5.2 times
OT (%) (Mouse [1]; EPM 5 minutes, dosage 3 mg/Kg, n=10, negative control 20.1 ± 4.5, p<0.05): 42.3 ± 5.7 %
OE (%) (Mouse [1]; EPM 5 minutes, dosage 3 mg/Kg, n=10, negative control 22.8 ± 5.9, p<0.05): 40.9 ± 5.2 %
values of OT % and OE % and total number of the times of entering arms (in words) (Mouse [1]; EPM, with the dosage of administration): can increase the values of OT % and OE % without increasing the total number of the times of entering arms
Grooming Behavior (%) (Mouse [2]; negative control 2.38 ± 1.16): 1.78 ± 1.06%
Exploratory Behavior (%) (Mouse [2]; negative control 2.44 ± 0.88): 1.09 ± 0.52%
Attacking Behavior (%) (Mouse [2]; negative control 2.56 ± 2.09): 0.69 ± 0.52%
NE (norepinephrine) ([3]; n=10, negative control 0.104 ± 0.048): 0.080 ± 0.053 pg/mL
Dopamine ([3]; n=10, negative control 9.542 ± .93): 11.38 ± 4.33 ng/mL
NA ([3]; n=10, negative control 40.97 ± 13.25): 37.22 ± 10.05 pg/mL
5-HT ([4]; n=10, negative control 0.86 ± 0.15, p<0.05): 1.12 ± 0.13 ng/mL
NE ([4]; n=10, negative control 1.15 ± 0.16): 1.00 ± 0.13 pg/mL
DA ([4]; n=10, negative control 5.45 ± 0.76): 6.00 ± 1.70 ng/mL
NA ([4]; n=10, negative control 15.08 ± 0.71): 14.67 ± 0.36 pg/mL
COR (cortisol) ([4]; n=10, negative control 49.94 ± 7.26, p<0.05): 28.94 ± 6.36 ng/mL
Times of Locomotor Activity 15-20 min (times) (Mouse [5]; 15-20 min after administration, dosage 3 mg/Kg, n=10, negative control 86 ± 35): 48 ± 46 times
Times of Locomotor Activity 30-35 min (times) (Mouse [5]; 30-35 min after administration, dosage 3 mg/Kg, n=10, negative control 64 ± 15, p<0.05): 32 ± 16 times
Times of Locomotor Activity 60-65 min (times) (Mouse [5]; 60-65 min after administration, dosage 3 mg/Kg, n=10, negative control 53 ± 9, p<0.05): 24 ± 6 times
times of locomotor activities of the mouse (in words) (Mouse [5]; with the dosage of administration): prominently reduce the times of locomotor activities of the mouse at the two periods of time, namely, 30 minutes and 60 minutes
